Data on two molecules can be found in patent publication US20180214400A1, “THE USE OF KAURANES COMPOUNDS IN THE MANUFACTURE OF MEDICAMENT FOR TREATMENT OF CADIAC HYPERTROPY AND PULMONARY HYPERTENSION” (KEY-PHARMA BIOMEDICAL INC., priority 2015, published 2018).

One data set has as its system TAC rats. Briefly: Heart rate variability spectral analysis in TAC rats. The data set is classed as in vivo. The conditions noted are these: TAC for 9 weeks. The method, then:
Three or nine weeks after TAC operation, rats were anesthetized with pentobarbital sodium (i.p. 40 mg/kg). The electrocardiogram (ECG) was measured using the II Einthoven lead. Three stainless steel 22G needle electrodes were localized in the insertion of the right (G1) and left (GND) front legs, and in the left (G2) rear leg. Accordingly, 10 min of ECG recordings were digitally acquired at 2 kHz prior to any maneuver. Heart rate variability-Spectral Analysis was performed using fast Fourier transformation. Oscillatory components were separated into very low frequency (VLF; <0.04 Hz), low frequency (LF; 0.04-0.6 Hz), or high frequency (HF; 0.6-2.5 Hz) bands. HRV components were expressed in normalized units (n.u.) as a percentage of total power minus the VLF component. Efferent vagal parasympathetic activity is a major contributor to the HF component and both sympathetic and vagal influences contribute to the LF component; thus the ratio of LF to HF is commonly utilized as a measure of sympathovagal balance. Parameters of the heart rate variability (HRV) are indicators for cardiac autonomic balance. […] This invention disclosed a novel used of compound A for restore cardiac autonomic balance by suppress elevated sympathetic activity, which sildenafil had no such effect.

The test system of the next data set is sarcolemma KATP channel. In words: Sarcolemma KATP channel effect. The source says: This invention disclosed exclusively that compound A per se had no effect on either sarcolemma or mitochondrial KATP channel. Instead, compound A is acting only as a sensitizer which render the KATP channel response greater to known KATP channel openers, such as pinacidil and to change of ATP.

Data set [1] relates to cardiomyocyte from guinea pig. Briefly: Electrophysiology in guinea pig cardiomyocyte after ischemia and reperfusion. Type of data set: cell-based. The source says:
This invention also disclosed that in cardiomyocyte from guinea pig, that compound A can reduce elongated QT segment and increased QT variations, further it prevent prolonged action potential, decrease resting potential and suppressed Herg (Ikr) currents as result of ischemia and reperfusion. Compound A can also as an scavenger to reduce ROS (reactive oxygen species). Therefore, it can be used for treatment of abnormal ECG in clinic diagnosed with above or used for diseases or clinic procedures which may involve above mentioned mechanism.

The subject of data set [2] is neonatal rat cardiac fibroblasts. Briefly: TGF-β induced proliferation of cardiac fibroblasts (MTT). The conditions noted are these: cultured neonatal rat cardiac fibroblasts. The data set is classed as cell-based. From the text: This invention disclosed that compound A can prevent TGF-β induced proliferation in cultured neonatal rat cardiac fibroblasts. Furthermore, this invention disclosed that there were a significant increase in cGMP levels in compound A treated cardiac fibroblasts which is related to its anti-hypertrophy and anti-fibrosis roles.
(§1) Neonatal rat cardiac fibroblasts were isolated from 1-2-day-old Sprague-Dawley rats as described previously. Briefly, hearts from newborn 1-2-day-old Sprague-Dawley rats were minced on ice, and cells were isolated by trypsin incubation at 37° C. Non-cardiomyocytes were separated from the cardiomyocytes by differential pre-plating, and then cardiomyocytes were removed with fibroblasts seeded in culture dishes. The cells were passaged after 3 days, using a 0.05% trypsin solution. Cells were cultured in DEME/F12 medium with 5% fetal calf serum, and maintained at 37° C., 5% CO2 condition.
Viability of cardiac fibroblast in culture was assessed using the 3-(4,5-dimethylthiazol-2-yl)-2,5-diphenyltetrazolium bromide (MTT) method. The assay measures the ability of an active mitochondrial enzyme to reduce the MTT substrate (yellow to blue) in live cells. Isolated primary cardiac fibroblasts were plated in serum-free conditions on 96-well plates. […] Absorbance was measured at 460 nm.

The subject of the next data set is dogs. Briefly: Penile erection in male dogs. The data set is classed as in vivo. The conditions noted are these: relative higher dose.
For data set [3], the system named is cerebral I/R injured rats. In words: Late phase cerebral I/R injury (7 days) in rats. Type of data set: in vivo. The conditions noted are these: 7 days after I/R. The method, then:
Reactive astrogliosis is a common pathological process in late phase of cerebral I/R injury, which contributes to further neuronal damages. It is also seen in neuronal degenerative disease such as Alzheimer's disease in the present invention, compound A given consecutively for 7 days in cerebral I/R injured rats. […] The therapeutic effects of either single or consecutive 7 treatments with compound A were Analyzed and compared at 7 days after I/R injury.

The test system of data set [4] is hypertrophy cardiomyocytes. In words: Cytosol Ca++ in hypertrophy cardiomyocytes. Type of data set: cell-based. From the text:
This invention disclosed a novel use of inotropic medicine selectively that is compound A can be used to improve the cardiac function in a deteriorative hypertrophy heart without increase cytosol Ca++ or oxygen consumption. In addition it was not worsening the ECG instead it improve the ECG in hypertrophy heart. This is due to that compound A can reduce cardiomyocytes cytosol Ca++ level but enhance only the peak of Ca++ transient during each contraction in hypertrophy cardiomyocytes. This novel finding makes compound A different from other known traditional inotropic medicine such digitalis and beta agonists such as epinephrine.

A further data set has as its system cGMP. In words: cGMP ELISA in neonatal rat fibroblasts. The data set is classed as cell-based. The note with it: 100 um, 3 h. The method, then: as §1, with “condition. cGMP levels in the neonatal rat fibroblasts after treated with vehicle or compound A or sildenafil were measured with an ELISA kit following the manufacture's instruction. Quiescent cells were cultured with different doses of compound A ([…]) or sildenafil ([…]) for 3 h. After treatment, the cells were lysed with 0.1N HCl, and performed cGMP ELISA assay.” for “condition.”

Data set [5] has as its system embolic middle cerebral artery occlusion. The note with it: oral, seven consecutive days starting 2 h or 24 h after occlusion; cited from earlier work.
In data set [6] the test system is hypoxia-induced PHT in rats. The note with it: chronic hypoxia; cited from earlier work.
Data set [7] has as its system mice exposed to chronic transverse aortic constriction. The note with it: cited from earlier work.

As to `C[C@@]12CC[C@@H]3[C@@](CC[C@H]4[C@@]3(C)CCC[C@@]4(C)C(=O)O)(CC1=O)C2` [Compound A, (4α,8β,13β)-13-methyl-16-oxo-17-norkauran-18-oic acid], the LF/HF ratio entry in the data set on TAC rats is “reversed to normal”. The “effect on sarcolemma KATP channel per se” value with sarcolemma KATP channel is “had no effect”. Also, in the data set on sarcolemma KATP channel (sarcolemma or mitochondrial not distinguished), the “KATP channel response to known openers such as pinacidil and to change of ATP” value is listed as “sensitizer”. Further, in data set [1], the decrease resting potential entry is recorded as “prevent”; the “elongated QT segment and increased QT variations” value is on record as “reduce”; the prolonged action potential result is recorded as “prevent”; the “suppressed Herg (Ikr) currents” value was “prevent”. Besides, the TGF-β induced proliferation result in data set [2] was “prevent”. Also, the penile erection entry with dogs was “long lasting penile erection”. For the same molecule, the “I/R injury, consecutive 7 treatments comparing to single treatment” value in [3] is on record as “significantly improved”. In addition, the “accumulation of activated astrocytes” value in data set [3] (consecutive treatments) was “significantly inhibited”. In addition, in data set [3] (given consecutively for 7 days), the infarct volume result was “reduction”; the “neurological behavior and cellular morphology” value is reported as “improvement”; the neuronal survival result is reported as “enhancement”. Moreover, in data set [4], the “cardiomyocytes cytosol Ca++ level” value is given as “reduce” and the “peak of Ca++ transient during each contraction” value is “enhance”.

As to `CCCc1nn(C)c2c(=O)[nH]c(-c3cc(S(=O)(=O)N4CCN(C)CC4)ccc3OCC)nc12` [sildenafil, reference compound], the LF/HF ratio entry in the data set on TAC rats is “did not reduce”. Also, the Stimulated production of cGMP with cGMP was 141 ± 27%. Moreover, in [5], the infarct volume entry is recorded as “without any effect” and the neurological recovery entry is given as “significantly enhanced”. For the same molecule, in [6], the “rise in pulmonary artery pressure and vascular remodeling” value is on record as “attenuated”. In addition, the “chamber and cardiomyocytes hypertrophy” value in [7] was “suppresses”.
